In PMC8277129, “Bioconcentration of Several Series of Cationic Surfactants in Rainbow Trout” (Environmental Science & Technology, 2021):
Where two headings read alike, the source gives them in different places. Marks after values point to notes of the source that are not given here.

Tests used:
[1] = parameters: method as in REACH dossier; conditions: aqueous; ref REACH dossier; cited from earlier work
[2] = parameters: method as in Perrin 1965, SRC, REACH, Perrin 1972, Hall 1957; conditions: ref Perrin 1965, SRC, REACH, Perrin 1972, Hall 1957, cited from earlier work; for pKa, experimental reference data: 25 °C
[3] = system: juvenile rainbow trout (Oncorhynchus mykiss); assay: Bioconcentration (BCF) experiment based on OECD 305, aqueous exposure to surfactant mixtures; assay type: in vivo; conditions: for factor by which BCF is lower at pH 6.2 than at pH 7.6: MIX1 vs MIX1pH; for BCF (kU/kT) / uptake rate constant (kU): whole fish; for uptake rate constant (kU): 14 d exposure, 28 d depuration
Description: (§1) Juvenile rainbow trout were purchased from EM lax in Västervik, Sweden, and held in the aquaria facility for one month prior to starting the experiment on August 28, 2018. Ethical approval for the experiments was obtained from Stockholm’s djurförsöksetiska nämnd (decision 9967–2017). The experiment was conducted in six 350 L fiberglass aquaria with a water renewal rate of 1.5 L min^–1 corresponding to a turnover time of […]. The water temperature and the air temperature in the aquaria room were 10 °C. The lighting was dim and programmed on a 12 h light/12 h dark cycle.
(§2) Three BCF experiments were conducted, one each for MIX1 and MIX2 at pH ∼7.6 (denoted MIX1 and MIX2 in the following), and one for MIX1 at pH ∼6.2 (MIX1pH). Each experiment consisted of a 14 d exposure phase and a 28 d depuration phase. There were also two control aquaria where unexposed fish were kept, one at pH 7.6 and one at pH 6.2. For the pH 6.2 aquaria, a 20% v:v formic acid solution was pumped into a premixing basin where it was mixed with the inflowing water before entering the aquarium. pH sensors monitored pH in the premixing basin and the aquarium. The pH for the MIX1 and MIX2 experiments was governed by the pH of the water supply. Water samples were collected at 8 time points during each experiment for the determination of pH and alkalinity. Water samples were collected daily during the exposure phase for determination of total organic carbon (TOC), which was measured with NDIR detection after acidification, purging and high-temperature catalytic combustion (Shimadzu TOC-L).
(§3) For the exposure phase, a methanol solution of the test chemical mixture was infused continuously at 4.0 μL min^–1 into the water inflow of the aquarium using a syringe pump. The target concentrations of the chemicals in water ranged from 2.5 to 100 μg L^–1 (Table 1). They were selected to be as low as possible to minimize the risk of toxic effects while still being high enough to enable collection of high-quality data, building on the results of the tissue distribution experiment.[32] The syringe pump was started in an aquarium containing no fish. After 16 h to allow the concentrations to stabilize, ∼80 rainbow trout were transferred to the aquarium. Over the following 14 d water samples were collected and fish were sacrificed according to the schedule in Table S5. The remaining fish were then transferred to a second aquarium that received water without chemical addition. Over the following 28 d further water samples were collected and fish were sacrificed (Table S5).
(§4) At each fish sampling, 4–6 fish were sacrificed. Fish were also sampled periodically from the control aquaria. Following stunning and severance of the spinal cord, the fish were placed in a polyethylene bag, weighed, and immediately frozen at −20 °C. The median fish weight at sacrifice was 10.94 g, with a 25th and 75th percentile of 8.43 and 13.58 g, respectively.
(§5) Three fish from each time point were prioritized for analysis based on proximity to the median fish weight. Each fish was semithawed, cut into 3–4 pieces, and homogenized with an Ultra-Turrax device. 150 mg of the homogenate was transferred to a preweighed 13 mL polypropylene tube, centrifuged to a pellet, and weighed. 50 μL of methanol was added and the prepared aliquot was frozen. For extraction internal standard solution (isotope labeled standards of Q10 (D21), Q14 (D29), and P16 (D33)), 3 mL of methanol and 3 steel balls (3.2 mm diameter) were added to the prepared aliquot. This mixture was mixed in a bullet blender for 1 min, and then placed in an ultrasound bath at 50 °C for 60 min. Following centrifugation, the supernatant was decanted and the extraction was repeated. The extracts were combined and a portion corresponding to 25–50 mg homogenate was cleaned up on a weak cationic exchange SPE column (WCX, 60 mg) as described elsewhere.[32] […]

[4] = ref Timmer and Droge (2017); cited from earlier work
[5] = Bioconcentration (BCF) experiment based on OECD 305, aqueous exposure to surfactant mixtures; assay type: in vivo, Oncorhynchus mykiss; conditions: whole fish, read-out: measured total elimination rate constant (kT) (converted)
Description: as §1, §2, §3, §4, §5

[6] = system: gills of rainbow trout; assay: Mechanistic one-box mass balance model of gill uptake and elimination; conditions: for predicted gill elimination rate constant eq 1 (k2): from measured kU and modeled αW, αB, DFW
Description: To gain more mechanistic insight into the results, we formulated a simple one-box mass balance model of chemical bioconcentration in fish that considered diffusive uptake and elimination across the gills as well as biotransformation.[33] The flow of water across the gills and the flow of blood through the gills were modeled as perfusion limited resistances that constrain gill uptake and elimination. […] Consequently, these resistances are unknowns. Ion trapping effects caused by differences in pH between water at the gill surface and blood in the gills are considered, drawing on previous work on the uptake and elimination of ionizable organic chemicals across the gills of rainbow trout.[22],[23] Partitioning of the chemical from the dissolved phase into blood and into whole fish was calculated as the product of the membrane lipid–water distribution ratio (DMLW,T, including partitioning of both the neutral and the charged forms) and the fraction of membrane lipid in blood and whole fish. A detailed description of the model is provided in the SI (Text S3).
The contribution of the water perfusion and blood perfusion resistances were compared with the overall resistance for transport across the gills from water to blood (RW→B), which was calculated from the measured kU according to equation S4.3. […] For all of the other chemicals the blood resistance is insignificant compared to the overall resistance.
The rate constant for elimination across the gills, k2, can be defined as follows: [drawing 1] 1 where αB and αW are the neutral fractions of the chemical in the blood and in the water at the gill surface, respectively, and DFW is the fish-water distribution ratio of the chemical at the pH of blood (8.1) (see Text S3). Using the measured kU and the values of αW, αB, and DFW estimated for the model, k2 was calculated (Table 2).

Compound: CCCCCCCCCC[N+](C)(C)CCCCCCCCCC.CCCCCCCCCC[N+](C)(C)CCCCCCCCCC.O=C([O-])CCCCC(=O)[O-] [1-Decanaminium,N-decyl-N,N-dimethyl-, hexanedioate(2:1)]
- SURFACE TENSION [1]: 32.3 mN/m

Compound: CCCCCCCC/C=C/CCCCCCCCN(CCO)CCO [2-[(2-hydroxyethyl)[(9E)-octadec-9-en-1-yl]amino]ethan-1-ol]
- SURFACE TENSION [1]: 27 mN/m

Compound: CCCCCCCCCCCCCC[N+](C)(C)CCCCCCCCCCCCCC.[Cl-] [N,N-dimethyl-N-tetradecyltetradecan-1-aminium chloride]
- SURFACE TENSION [1]: 28 mN/m

Compound: CCCCN(C)C [N,N-dimethylbutylamine, reference compound]
- pKa, experimental reference data [2]: 10.02

Compound: CCCCCCCCCCCCCCCCN(C)C [N,N-dimethylhexadecan-1-amine]
- SURFACE TENSION [1]: 30.5 mN/m

Compound: CCCN(C)C [N,N-dimethylpropylamine, reference compound]
- pKa, experimental reference data [2]: 9.99

Compound: CCCCNCCCC [N-butylbutan-1-amine]
- SURFACE TENSION [1]: 50.6 mN/m

Compound: CCCCNC [N-methylbutylamine, reference compound]
- pKa, experimental reference data [2]: 10.9

Compound: CCCCCCCCCN [P9, Nonylamine]
- factor by which BCF is lower at pH 6.2 than at pH 7.6 [3]: 22
- BCF (kU/kT) ([3]; pH 6.2 (MIX1pH)): 0.1 ^b L kg^–1
- BCF (kU/kT) ([3]; pH 7.6 (MIX1, MIX2)): 2.2 L kg^–1
- pKa used (selected value) ([2]; selected per amine type, weighted from simulated and experimental analogue data): C9NH2 (10.6)
- Log DMLW,C (membrane-water partition coefficient of the charged form) [4]: 3.72

Compound: CCCCCCCCCCCCN [P12, Dodecylamine]
- factor by which BCF is lower at pH 6.2 than at pH 7.6 [3]: 34
- uptake rate constant (kU) ([3]; pH 6.2 (MIX1pH)): 0.36 L kg^–1 h^–1
- BCF (kU/kT) ([3]; pH 6.2 (MIX1pH)): 7.1 L kg^–1
- uptake rate constant (kU) ([3]; pH 7.6 (MIX1, MIX2), 10 °C): 2.0 L kg^–1 h^–1
- BCF (kU/kT) ([3]; pH 7.6 (MIX1, MIX2)): 250 L kg^–1
- k el ([5]; pH 6.2 (MIX1pH)): 1.42e-05 s⁻¹
- k el ([5]; pH 7.6 (MIX1, MIX2)): 2.25e-06 s⁻¹
- Log DMLW,C (membrane-water partition coefficient of the charged form) [4]: 5.58
- factor by which k2 was less than kT [6]: ~10
- pH dependency of k2 (factor between pH 7.6 and pH 6.2) ([6]; MIX1 vs MIX1pH): 2.5
- Uptake resistance ([6]; lower pH (6.2), value printed in Figure 3): 744 h m^-1
- k2/kT ([6]; pH 6.2 (MIX1pH)): 0.04
- predicted gill elimination rate constant eq 1 (k2) ([6]; pH 6.2 (MIX1pH)): 0.0022 h^–1
- k2/kT ([6]; pH 7.6 (MIX1, MIX2)): 0.11
- predicted gill elimination rate constant eq 1 (k2) ([6]; pH 7.6 (MIX1, MIX2)): 0.0009 h^–1
